The values below come from ChEMBL document CHEMBL6109145, “Indolizine Derivatives Inhibit TRPM2 and Protect against Ischemic Brain Injury with an Extended Treatment Window” (J Med Chem, 2025).

The structures appear in SMILES notation.

Series [1] deals with Transient receptor potential cation channel subfamily M member 2 (Homo sapiens, UniProt O94759). The experiment in a line: Inhibition of TRPM2 channel (unknown origin) in doxycycline-inducible human HEK-293T cells assessed as inhibition of ADPR activated current by measuring inhibition rate at +80 mV to -80 mV at 1 uM by whole-cell patch clamp electrophysiology relative to control. It is filed as cell-based. A general note: Patch clamp records ionic current or voltage across a cell membrane.
Chain of Transient receptor potential cation channel subfamily M member 2 (O94759 whole entry): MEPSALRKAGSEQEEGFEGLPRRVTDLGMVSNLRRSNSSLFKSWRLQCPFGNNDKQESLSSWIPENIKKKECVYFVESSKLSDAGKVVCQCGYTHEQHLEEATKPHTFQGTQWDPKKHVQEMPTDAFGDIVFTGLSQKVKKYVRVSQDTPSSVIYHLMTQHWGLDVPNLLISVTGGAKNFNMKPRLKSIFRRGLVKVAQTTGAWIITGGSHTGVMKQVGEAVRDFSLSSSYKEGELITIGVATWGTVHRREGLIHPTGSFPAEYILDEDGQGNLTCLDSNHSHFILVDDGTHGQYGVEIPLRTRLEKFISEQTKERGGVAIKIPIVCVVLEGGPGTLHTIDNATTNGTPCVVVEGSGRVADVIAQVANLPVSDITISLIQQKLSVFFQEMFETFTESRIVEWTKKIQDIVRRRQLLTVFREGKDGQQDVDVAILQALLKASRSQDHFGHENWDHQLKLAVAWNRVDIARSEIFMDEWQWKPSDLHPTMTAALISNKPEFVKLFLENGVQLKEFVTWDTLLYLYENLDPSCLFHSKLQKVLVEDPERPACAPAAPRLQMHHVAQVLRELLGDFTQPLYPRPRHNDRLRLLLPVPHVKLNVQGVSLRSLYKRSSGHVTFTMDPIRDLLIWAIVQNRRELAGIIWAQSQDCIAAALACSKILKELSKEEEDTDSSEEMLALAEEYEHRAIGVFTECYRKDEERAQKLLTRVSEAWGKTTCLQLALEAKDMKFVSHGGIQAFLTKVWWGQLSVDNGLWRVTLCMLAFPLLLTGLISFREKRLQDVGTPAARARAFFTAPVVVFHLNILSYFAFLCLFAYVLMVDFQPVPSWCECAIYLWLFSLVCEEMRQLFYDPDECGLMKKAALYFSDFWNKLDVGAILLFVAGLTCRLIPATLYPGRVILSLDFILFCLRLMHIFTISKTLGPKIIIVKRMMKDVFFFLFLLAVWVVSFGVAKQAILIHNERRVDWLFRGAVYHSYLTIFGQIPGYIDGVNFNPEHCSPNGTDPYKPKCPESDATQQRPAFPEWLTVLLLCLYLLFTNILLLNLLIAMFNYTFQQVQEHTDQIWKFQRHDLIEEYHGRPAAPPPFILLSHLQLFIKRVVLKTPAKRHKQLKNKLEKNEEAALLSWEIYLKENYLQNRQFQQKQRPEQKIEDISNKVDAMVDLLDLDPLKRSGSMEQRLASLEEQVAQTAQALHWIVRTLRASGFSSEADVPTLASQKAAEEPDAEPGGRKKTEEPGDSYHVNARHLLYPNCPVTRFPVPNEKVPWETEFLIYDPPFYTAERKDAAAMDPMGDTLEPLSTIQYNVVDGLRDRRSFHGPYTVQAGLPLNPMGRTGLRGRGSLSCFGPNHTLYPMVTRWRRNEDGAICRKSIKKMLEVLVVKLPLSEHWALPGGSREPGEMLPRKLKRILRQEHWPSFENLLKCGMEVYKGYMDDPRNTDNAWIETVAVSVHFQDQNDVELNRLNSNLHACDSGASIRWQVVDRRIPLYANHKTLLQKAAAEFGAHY

Series [2] is described as follows: Cmax in mouse at 1 mg/kg, iv administered single dose. It is filed as ADME, organism-based. The note with it: in vivo.
The nature of series [3]: Tmax in mouse at 100 mg/kg, IG administered single dose. As to conditions: in vivo, po. It counts as ADME, organism-based.
Series [4] can be described thus: Half life in mouse at 1 mg/kg, iv administered single dose. It counts as ADME, organism-based. The note with it: in vivo.
In series [5] the test system is Mus musculus. Briefly: Neuroprotective effect against transient middle cerebral artery occlusion (tMCAO) mouse model assessed as infarct volume in TTC-stained brain slices at 3 mg/kg, iv administered 3 hrs after reperfusion (reference value: 59 +/- 2.4%). It is filed as functional.
Series [6] is described as follows: AUC (0 to t) in mouse at 100 mg/kg, IG administered single dose. The note with it: in vivo, po. It is filed as ADME, organism-based.
The nature of series [7]: AUC (0 to infinitive) in mouse at 1 mg/kg, iv administered single dose. It is filed as ADME, organism-based. As to conditions: in vivo.
The nature of series [8]: AUC (0 to infinitive) in mouse at 20 mg/kg, IG administered single dose. It is filed as ADME, organism-based. The note with it: in vivo, po.
Series [9] is described as follows: Tmax in mouse at 1 mg/kg, iv administered single dose. It is filed as ADME, organism-based. The note with it: in vivo.
Series [10] has as its system Mus musculus. The experiment in a line: Neuroprotective effect against transient middle cerebral artery occlusion (tMCAO) (60 mins ischemia/24 hrs reperfusion) mouse model assessed as infarct volume in TTC-stained brain slices at 3 mg/kg, iv once daily for 7 days (reference value: 39.6 +/- 1.3%). It counts as functional. The note with it: 1 h.
The nature of series [11]: MRT in mouse at 20 mg/kg, IG administered single dose. It counts as ADME, organism-based. As to conditions: in vivo, po.
The test system of series [12] is Mus musculus. Briefly: Neuroprotective effect against transient middle cerebral artery occlusion (tMCAO) mouse model assessed as infarct volume in TTC-stained brain slices at 3 mg/kg, iv administered 24 hrs after reperfusion (reference value: 4.3 +/- 0.3%). It is filed as functional.
Series [13] can be described thus: Oral bioavailability in mouse at 20 mg/kg, IG administered single dose. The note with it: in vivo. It is filed as ADME, organism-based.
Series [14] can be described thus: Half life in mouse at 20 mg/kg, IG administered single dose. It counts as ADME, organism-based. As to conditions: in vivo, po.
Series [15] in a line: Clearance in mouse at 1 mg/kg, iv administered single dose. It is filed as ADME, organism-based. As to conditions: in vivo.
Series [16] in a line: Cmax in mouse at 20 mg/kg, IG administered single dose. It counts as ADME, organism-based. As to conditions: in vivo, po.
Series [17] in a line: Oral bioavailability in mouse at 100 mg/kg, IG administered single dose. It is filed as ADME, organism-based. The note with it: in vivo.
Series [18] concerns Mus musculus. Briefly: Neuroprotective effect against transient middle cerebral artery occlusion (tMCAO) mouse model assessed as infarct volume in TTC-stained brain slices at 0.3 mg/kg, iv administered 3 hrs after reperfusion (reference value: 59 +/- 2.4%). It is filed as functional.
Series [19] can be described thus: MRT in mouse at 1 mg/kg, iv administered single dose. It counts as ADME, organism-based. As to conditions: in vivo.
A short description of series [20]: AUC (0 to infinity) in mouse at 100 mg/kg, IG administered single dose. It is filed as ADME, organism-based. As to conditions: in vivo, po.
Series [21] can be described thus: Tmax in mouse at 20 mg/kg, IG administered single dose. It counts as ADME, organism-based. The note with it: in vivo, po.
Series [22] in a line: Cmax in mouse at 100 mg/kg, IG administered single dose. The note with it: in vivo, po. It counts as ADME, organism-based.
Series [23] in a line: Half life in mouse at 100 mg/kg, IG administered single dose. The note with it: in vivo, po. It counts as ADME, organism-based.
Series [24] is described as follows: AUC (0 to t) in mouse at 1 mg/kg, iv administered single dose. As to conditions: in vivo. It counts as ADME, organism-based.
A short description of series [25]: AUC (0 to t) in mouse at 20 mg/kg, IG administered single dose. It is filed as ADME, organism-based. As to conditions: in vivo, po.
Series [26] is described as follows: MRT in mouse at 100 mg/kg, IG administered single dose. It is filed as ADME, organism-based. As to conditions: in vivo, po.
The subject of series [27] is Mus musculus. The experiment in a line: Neuroprotective effect against transient middle cerebral artery occlusion (tMCAO) mouse model assessed as infarct volume in TTC-stained brain slices at 1 mg/kg, iv administered 3 hrs after reperfusion (reference value: 59 +/- 2.4%). It is filed as functional.
Series [28] relates to Mus musculus. Briefly: Neuroprotective effect against transient middle cerebral artery occlusion (tMCAO) mouse model assessed as infarct volume in TTC-stained brain slices at 1 mg/kg, iv administered 24 hrs after reperfusion (reference value: 4.3 +/- 0.3%). It is filed as functional.

`O=C(c1ccccc1)c1cc(C(=O)N2CCCCC2)cc2cccn12`: the IC50 in [1] was determined as 2800 nM.

For `CCN(CC)C(=O)c1cc(C(=O)c2ccccc2)n2cccc2c1`, the maximum concentration (Cmax) came to 260 ng/mL in series [2], 330 ng/mL in [16] and 1520 ng/mL in [22]. Moreover, the Tmax in series [3] came to 1.1 h; in series [9], 5.4 min; in [21] it was 0.83 h. For the same compound, the figures for the half-life in [4], in series [14] and in series [23] were 0.86 h, 2.62 h and 2.83 h, respectively. Besides, the Activity in series [5] is 30.7%; in series [10], 23.4%; in series [12] it was 2.3%; in series [18], 51.5%; in [27] it was 39.4%. Further, the exposure AUC(0-t) in series [6] was 10600 ng·h/mL; in series [24], 220 ng·h/mL; in series [25], 2200 ng·h/mL. For the same compound, the AUC(0-inf) in [7] was determined as 220 ng·h/mL. In addition, the results for the AUC in [8] and in series [20] were 2410 ng·h/mL and 11740 ng·h/mL, respectively. Besides, the results for the mean residence time (MRT) in [11], in series [19] and in series [26] were 2.65 h, 1.24 h and 3.16 h, respectively. For the same compound, the bioavailability in series [13] amounted to 50%; in series [17], 48.2%. Also, in series [15], the clearance is 75.8 mL/min/kg. For the same compound, in [1], the IC50 is 2290 nM.

Consider `CC1=NN(c2ccccc2)C(=O)C1` [EDARAVONE], for which the Activity in series [5] amounted to 40.6%; in [28] it was 2.8%; in [10] it was 38.9%; in [12], 3%.

As for `O=C(c1ccccc1)c1cc(C(=O)N2CCCC2)cc2cccn12`, the concentration for half-maximal inhibition (IC50) in series [1] turned out to be 3080 nM.

In the case of `O=C(c1ccccc1)c1cc(C(=O)N2CCOCC2)cc2cccn12`, the IC50 in [1] was 2890 nM.

By IC50 is commonly meant the concentration that gives 50% inhibition. Broadly, the Cmax is the peak of the concentration-time curve. As a reminder, the Tmax is the time from dosing to the highest level. In general, half-life refers to the time needed for the level to fall by half in the phase considered. A low value points to fast loss. Usually AUC(0-t) stands for exposure summed from dosing to a finite time, without extrapolation to infinity. Low readings indicate low exposure, high ones high exposure. The AUC(0-inf) is total exposure, with the tail of the curve extrapolated. Low values mean low exposure, high ones high exposure. By AUC is commonly meant concentration integrated over time. A low value points to low exposure. What is called MRT is the average time that molecules of a dose stay in the body. A word on the bioavailability: it is dose-corrected exposure relative to a reference, in per cent. A lower bioavailability goes with little systemic uptake. For orientation: clearance means the volume of plasma or blood freed of the substance per unit of time. Read a high clearance as a high capacity for elimination.
